The subject of one assay is immunogen. Briefly: Serum antibody titer to the immunogen after immunity induction (ELISA). The format is in vivo, mouse. The settings on record: for antibody titer in the IgG subclass: antigen not specified, data not shown; for serum antibody titer to the immunogen, IgM subclass: mouse serum 3 and 7 days after final immunization vs unimmunized, liposome method with Lipid-A, ELISA; for serum antibody titer to the immunogen, IgG subclass: mouse serum after final immunization (7 days where stated) vs unimmunized, only primary additional immunization. How it is done:
(§1) Each immunogen was subcutaneously immunized on the first day, and additional immunization was abdominally conducted after two weeks. The blood was collected after 3 days and 7 days from the additional immunization to prepare serums. Antibody titers in the obtained serums were evaluated by ELISA. An immunogen and a glycoprotein containing an objective carbohydrate were used as solid-phased antigens by ELISA, and each was evaluated as an antibody titer to the immunogen and an antibody titer to the objective carbohydrate (FIGS. 1 to 4).
In order to evaluate subclasses (IgM and IgG) of produced immunoglobulin, evaluation was conducted using antibodies specific to IgM and IgG as secondary antibodies. An antibody titer was evaluated as an activity of peroxidase that is a labeling enzyme of a secondary antibody. TMB was used as a chromogenic substrate of peroxidase, and an intensity of an absorbance at 450 nm after adding 2 N-sulfuric acid after the reaction was evaluated. FIGS. 1 to 3 illustrate antibody titers of IgM subclass, and FIG. 4 illustrates antibody titers of IgG subclass.
Next, each of racemic forms of various immunity inducers (a1, b1 and c1) synthesized in Examples (1-1), (1-2) and (1-3) was dissolved into s lipid containing cholesterol and phospholipid with an adjuvant (Lipid-A), and immunized a mouse being a host generally producing a monoclonal antibody (C3H/HeN strain) in a liposome method (Eur. J. Immunol., 16, 951-956, 1986) to evaluate the immunity inducing ability.
Each of the immunity inducers was subcutaneously immunized and additionally abdominally immunized after 2 weeks. After the additional immunization, the blood was collected after 3 days and 7 days, and the serum was examined. The antibody titer in the obtained serum was evaluated by ELISA method. In ELISA method, using two types of antigens of an immunogen and a glycoprotein (Fetuin) containing 6′-Sialyl-LacNAc, 3′-Sialyl-LacNAc and LacNAc structures, they were evaluated as an antibody titer to the immunogen and an antibody titer to the objective carbohydrate, respectively.
In addition, in order to evaluate subclasses (IgM and IgG) of immunoglobulin, an antibody specific to IgM and IgG was used as a secondary antibody to evaluate the subclasses. The antibody titer was evaluated as an activity of peroxidase that is a labeling enzyme of a secondary antibody. TMB was used for a chromogenic substrate of peroxidase, and an intensity of an absorbance at 450 nm after adding 2 N-sulfuric acid after the reaction was evaluated.
Each of the immunity inducers was subcutaneously immunized on the first day, and the carrier compound was additionally abdominally immunized after 2 weeks. After the additional immunization, the blood was collected after 3 days and 7 days to prepare serums. Antibody titers of the obtained serums were evaluated by ELISA method. In ELISA method, using two types of antigens of an immunogen and a glycoprotein (Fetuin) containing a 6′-Sialyl-LacNAc structure, they were evaluated as an antibody titer to the immunogen and an antibody titer to the objective sugar chain, respectively. In addition, in order to evaluate subclasses (IgM and IgG) of produced immunoglobulin, an antibody specific to IgM and IgG was used as the secondary antibody to evaluate the subclasses. The antibody titer was evaluated as an activity of peroxidase that is a labeling enzyme of the secondary antibody. TMB was used for a chromogenic substrate of peroxidase, and an intensity of an absorbance at 450 nm after adding 2 N-sulfuric acid after the reaction was evaluated. […] Among the evaluated compounds, the antibody titer of a2 was the lowest, and the activity of a3-1 was the highest in the examined compounds.
For orientation: An ELISA detects its analyte on a solid surface through an enzyme-linked reagent.

For a further assay, the system named is glycoprotein (Fetuin). Briefly: Serum antibody titer to glycoprotein (Fetuin) after immunity induction (ELISA). In kind it is in vivo. The settings on record: mouse serum 3 and 7 days after final immunization vs unimmunized; Fetuin-a used as antigen for c1. How it is done: as §1
In order to evaluate subclasses (IgM and IgG) of produced immunoglobulin, evaluation was conducted using antibodies specific to IgM and IgG as secondary antibodies. An antibody titer was evaluated as an activity of peroxidase that is a labeling enzyme of a secondary antibody. TMB was used as a chromogenic substrate of peroxidase, and an intensity of an absorbance at 450 nm after adding 2 N-sulfuric acid after the reaction was evaluated. FIGS. 1 to 3 illustrate antibody titers of IgM subclass, and FIG. 4 illustrates antibody titers of IgG subclass. […]
Each of the immunity inducers was subcutaneously immunized and additionally abdominally immunized after 2 weeks. […] The antibody titer in the obtained serum was evaluated by ELISA method. In ELISA method, using two types of antigens of an immunogen and a glycoprotein (Fetuin) containing 6′-Sialyl-LacNAc, 3′-Sialyl-LacNAc and LacNAc structures, they were evaluated as an antibody titer to the immunogen and an antibody titer to the objective carbohydrate, respectively.
In addition, in order to evaluate subclasses (IgM and IgG) of immunoglobulin, an antibody specific to IgM and IgG was used as a secondary antibody to evaluate the subclasses. The antibody titer was evaluated as an activity of peroxidase that is a labeling enzyme of a secondary antibody. TMB was used for a chromogenic substrate of peroxidase, and an intensity of an absorbance at 450 nm after adding 2 N-sulfuric acid after the reaction was evaluated. […]

Assay [1] has as its system glycoprotein (Fetuin) containing a 6′-Sialyl-LacNAc (CDw75) carbohydrate structure. As to conditions: Non Patent Literature 8, cited from earlier work.
A further assay relates to glycoprotein (HL60). Briefly: Serum antibody titer to HL60 glycoprotein after immunity induction (ELISA). In kind it is in vivo, mouse. On the procedure:
FIG. 9 illustrates serum antibody titers after immunity inductions with sLe^X-C12L and Le^X-C12L: after immunizing a mouse using each of the sLe^X-C12L and Le^X-C12L compounds as an immunity inducer, an antibody titer of each subclass (IgM and IgG) of immunoglobulin in the serum was evaluated by ELISA. A and B show serum antibody titers of a mouse immunized with sLe^X-C12L, C and D show serum antibody titers of a mouse immunized with Le^X-C12. A and C: Evaluations on an immunogen used as an antigen by ELISA. B: Evaluation on a cell extract (HL60) containing a glycoprotein including an epitope of a target carbohydrate used as an antigen by ELISA. […]
Each immunogen was subcutaneously immunized on the first day, and additional immunization was abdominally conducted after two weeks. […] Antibody titers in the obtained serums were evaluated by ELISA. An immunogen and a glycoprotein containing an objective carbohydrate were used as solid-phased antigens by ELISA, and each was evaluated as an antibody titer to the immunogen and an antibody titer to the objective carbohydrate (FIGS. 1 to 4).
In order to evaluate subclasses (IgM and IgG) of produced immunoglobulin, evaluation was conducted using antibodies specific to IgM and IgG as secondary antibodies. An antibody titer was evaluated as an activity of peroxidase that is a labeling enzyme of a secondary antibody. […]

Results on 6 molecules are retold here after patent US10307471B2, “Immunity inducer for saccharide antigens” (NATIONAL INSTITUTE OF ADVANCED INDUSTRIAL SCIENCE AND …, priority 2013, dated 2019).

“Also recorded” adds a separate entry of the source.

`CCCCCCCCCCCCCCCCCC(=O)NC(CCCCCCCCCC)CO[C@@H]1OC(CO)[C@@H](O[C@@H]2OC(CO[C@]3(C(=O)O)CC(O)[C@@H](NC(C)=O)C([C@H](O)[C@H](O)CO)O3)[C@H](O)C(O)C2O)C(O)C1NC(C)=O` (stereo partly drawn) [a1, Siaα2,6Galβ1,4GlcNAcβ1-CerA]: in the assay on immunogen, the “antibody titer in the IgG subclass” value was “not observed” and the “serum antibody titer to the immunogen, IgM subclass” value is “significantly increased; also recorded: significant increases of antibody titers”. The “serum antibody titer to glycoprotein (Fetuin), IgM subclass” value in the assay on glycoprotein (Fetuin) was “significantly increased; also recorded: significant increases of antibody titers”.

With phosphatidylethanolamine, the “appearance ratio of positive clones, conventional technique” value in assay [1] (581 wells) is on record as 1.3%. The “positive clones, conventional technique” value in assay [1] (out of selected 581 wells) was 8 wells.

`CCCCCCCCCCCCC/C=C/[C@@H](O)C(CO[C@@H]1OC(CO)[C@@H](O[C@@H]2OC(CO)[C@H](O[C@H]3OC(CO)[C@H](O)C(O[C@@H]4OC(CO)[C@H](O)C(O)C4NC(C)=O)C3O)C(O)C2O)C(O)C1O)NC(=O)CCCCCCCCCCCCCCCCCCCCCCC` (stereo partly drawn) [Globoside, GalNAcβ1,3Galα1,4Galβ1,4Glcβ1-Cer, reference compound]: in the assay on immunogen, the “serum antibody titer to the immunogen, IgM subclass” value is recorded as “significantly increased” and the “serum antibody titer to the immunogen, IgG subclass” value is listed as “not confirmed”. The “serum antibody titer to the immunogen, IgM subclass” value in the assay with immunogen (listed as globoside) is “significant increase of the antibody titer”.

For `CCCCCCCCCCC(CO[C@@H]1OC(CO)[C@@H](O[C@@H]2OC(CO[C@]3(C(=O)O)CC(O)[C@@H](NC(C)=O)C([C@H](O)[C@H](O)CO)O3)[C@H](O)C(O)C2O)C(O)C1NC(C)=O)NC(C)=O` (stereo partly drawn) [a2, reference compound], the “rank of antibody titer / activity among the evaluated compounds” value in the assay with immunogen (a1, a2, a3-1, a3-2, a3-3 compared, IgM subclass) is “lowest”. For the same molecule, the “serum antibody titer to the immunogen, IgM subclass” value with immunogen is on record as “significant increases of antibody titers”. Also, in the assay with glycoprotein (Fetuin), the “serum antibody titer to glycoprotein (Fetuin), IgM subclass” value is “significant increases of antibody titers”.

Take Siaα2,3-Galβ1,4GlcNAcβ1-CerA [b1]: in the assay on immunogen, the “antibody titer in the IgG subclass” value was “not observed” and the “serum antibody titer to the immunogen, IgM subclass” value is reported as “significantly increased; also recorded: significant increases of antibody titers”. For the same molecule, the “serum antibody titer to glycoprotein (Fetuin), IgM subclass” value in the assay on glycoprotein (Fetuin) was “significantly increased; also recorded: significant increases of antibody titers”.

In the case of `CCCCCCCCCCCCCCCCCCCCCCCC(=O)N[C@@H](CCCCCCCCCC)CO[C@@H]1O[C@H](CO)[C@@H](O[C@@H]2O[C@H](CO)[C@H](O)[C@H](O[C@]3(C(=O)O)C[C@H](O)[C@@H](NC(C)=O)[C@H]([C@H](O)[C@H](O)CO)O3)[C@H]2O)[C@H](O[C@@H]2O[C@@H](C)[C@@H](O)[C@@H](O)[C@@H]2O)[C@H]1NC(C)=O` [sLe^X-C12L, Siaα2,3Galβ1,4(Fucα1,3)GlcNAcβ1-C12L], in the assay with immunogen, the “serum antibody titer to the immunogen, IgM subclass” value was “significant increases of antibody titers” and the “serum antibody titer to the immunogen, IgG subclass” value is listed as “tendency of an increase of an antibody titer”. Besides, the “serum antibody titer to glycoprotein (HL60), IgG subclass” value in the assay with glycoprotein (HL60) (only primary additional immunization) was “significant increase of an antibody titer”. The “serum antibody titer to glycoprotein (HL60), IgM subclass” value in the assay with glycoprotein (HL60) (serums after 3 days and 7 days from the immunization) is “significant increases of antibody titers”.
